Patent US20190153051A1, “FUSION PROTEIN OF C2 DOMAIN AND AKT KINASE DOMAIN FRAGMENT AND USE THEREOF” (Gachon University of Industry-Academic Cooperation …, priority 2017, published 2019)

Legend:
[1] = Protein-lipid binding assay (PIP-strips)
Description: (§1) Particularly, the analysis was performed by using membrane-immobilized lipid strips (PIP-strips, Echelon Biosciences Inc., USA). At this time, the membrane was loaded with LPA (lysophosphatidic acid), LPC (lysophosphatidylcholine), PI (phosphatidylinositol), PE (phosphatidylethanolamine), PC (phosphatidylcholine), S1P (sphingosine 1-phosphate), PA (phosphatidic acid) or PS (phosphatidylserine) at the concentration of 100 pmol, to which calcium was added at the concentration of 0, 0.05 or 0.1 mM. Each membrane was pre-treated with a blocking buffer [fatty acid free 3% BSA (bovine serum albumin), 0.1% (v/v) Tween 20 and TBS (Tris-buffered saline), pH 7.5] at room temperature for 30 minutes. The PH domain of Atk protein purified in Example <7-1> was suspended in a blocking buffer at the concentration of 3.5 mg/Ml. The suspended protein was reacted with the membrane-immobilized lipid strip at room temperature for 30 minutes. The protein bound with lipid was identified by using the PH domain antibody.
To investigate whether or not the binding of the PKCβ protein C2 domain purified in Example <8-1> to PI(4,5)P2 or PI(3,4,5)P3 was inhibited by calcium, protein-lipid binding assay and ITC were performed. First, protein-lipid binding assay was performed by the same manner under the same conditions as described in Example <7-2> except that the PKCβ protein C2 domain was used instead of the Akt protein PH domain. At this time, D187/193A and D246/248A mutant proteins of the C2 domain were used as the control group, and the results are shown in FIG. 8.

[2] = ITC of C2 domain with PI(3,4,5)P3 liposomes; format: binding
Description: (§2) Particularly, a protein solution was prepared by suspending a protein in 10 mM HEPES (pH 7.0). Phospholipid related ligand was titrated in the protein solution at 25° C. by using iTC200 micro calorimetry system (MicroCal Inc., USA), and the generated graph was corrected using Origin software (MicroCal Inc., USA). At this time, the phospholipid related ligand was prepared in the form of liposome by mixing POPC (1-palmitoyl-2-oleoyl-sn-glycero-3-phosphocholin) chloroform solution and POPS (1-palmitoyl-2-oleoyl-sn-glycero-3-phosphoserine), PI(3,4)P2 (1,2-dipalmotoyl-sn-glycero-3-phosphatidylinositol-3,4-[…]), PI(4,5)P2 (1,2-dipalmotoyl-sn-glycero-3-phosphatidylinositol-4,5-trisphosphate) or PI(3,4,5)P3 (1,2-dipalmotoyl-sn-glycero-3-phosphatidylinositol-3,4,5-trisphosphate) at the molar ratio of 80:20. The organic solvent was eliminated. The organic solvent was removed and a single layer lamellar was produced in HEPES (pH 7.0) using phospholipids.
In the meantime, in ITC, the phospholipid related ligand was prepared in the form of liposome by mixing POPC chloroform solution and PI(3,4,5)P3 at the molar ratio of 80:20. Then, ITC was performed by the same manner under the same conditions as described in Example <7-3> except that the PKCβ protein C2 domain or D187/193A, the C2 domain mutant, was used.

CHO cells = assay: Migration of mCherry-tagged PH or C2 domain to the cell membrane, fluorescence microscopy; format: cell-based
Excerpt: First, the PH domain of Akt1 protein or the C2 domain of PKCβ protein was obtained by PCR using the primers consisting of the nucleotide sequences represented by […]. The obtained PCR product was cloned in pmCherry-C1 vector (Takara Clontech, Japan) by the conventional cloning method. CHO cells were transfected with the prepared vector by using lipofectamine according to the manufacturer's protocol. The transfected cells were selected by using blastidicin. Then, mCherry positive cells were confirmed by flow cytometry.
PMA at the concentration of 100 nM, ionomycin at the concentration of 10 μM or insulin at the concentration of 100 nM was added to the cells expressing the PH domain of Akt1 protein or the C2 domain of PKCβ protein and the location of the expressed protein was confirmed by fluorescence microscopy.

Akt protein [3] = assay: Western blotting of Akt protein phosphorylation in insulin-treated HepG2 cells; format: cell-based, human
Description: First, male C57BL/6 mice at 8 weeks were divided into the fasted group wherein the mice were fasted for 16 hours and the refed group wherein the mice were fasted for 16 hours and then fed for 4 hours. Each group was sub-divided into the high fat diet group (HFD) and the normal diet group (chow). The liver cells were extracted from the raised mice by the same manner and under the same conditions as described in Example 1. The extracted liver cells were lysed in a lysis buffer containing phosphatase (Sigma-Aldrich, USA) and protease inhibitor (Sigma-Aldrich, USA). Proteins extracted from 2 to 3 mg of the liver tissue were homogenized by using a tissue homogenizer (TissuLyser, Qiagen, USA) for 1.5 minutes at a frequency of 1/30 sec. The homogenized lysate was centrifuged at 12,000 rpm for 15 minutes and the supernatant was obtained. The amount of the extracted protein was quantified by using a protein assay kit (Bio-Rad Laboratories, USA), and at this time BSA was used as a standard sample. 3 mg of the protein was mixed with 6× loading buffer, followed by electrophoresis using 10% SDS-PAGE gel. The electrophoresed protein was transferred onto a polyvinylidene fluoride (PVDF) membrane by using a transfer buffer at 4° C. with 120 V for 1.5 hours. The PVDF membrane on which the protein was transferred was pretreated with a blocking buffer prepared by mixing 5% skim milk with TBS buffer (TBS-T, pH 7.6) supplemented with Tween 20 for 30 minutes, and the membrane was washed with TBS-T. The washed membrane was added with the antibody against Akt (Cell Signaling Technology, USA), Akt(T308) (Cell Signaling Technology, USA), Akt(S473) (Cell Signaling Technology, USA), FOXO3A (Cell Signaling Technology, USA), FOXO3A(S253) (Cell Signaling Technology, USA), GSK-3β (Cell Signaling Technology, USA) or GSK-3β(S9) (Cell Signaling Technology, USA) protein as a primary antibody, followed by reaction at 4° C. for 12 hours. At this time, the antibody against actin (Santa Cruz Biotechnology, USA) protein was used for the control group. Upon completion of the reaction, the secondary antibody corresponding to the primary antibody was added thereto, followed by reaction at room temperature for 30 minutes. The PVDF membrane was washed with TBS-T buffer three times. The washed PVDF membrane was added with ECL solution (Thermo Scientific, USA), followed by image observation.
To investigate the changes in insulin sensitivity when insulin was added to the fatty liver cell model constructed in vitro, the phosphorylations of those proteins that were involved in insulin signaling mechanism were examined. PA was added to the human HepG2 cells prepared in Example 3, followed by reaction for 24 hours. […]

[4] = ITC of phospholipid liposomes with calcium; format: binding; settings: liposome with POPC 80:20, 25° C.
Description: as §2

Akt protein [5] = assay: Western blot of Akt activation in HepG2 cells co-transfected with PI3K under increased calcium; format: cell-based, human
[6] = Protein-lipid binding assay (PIP-strips); remark: listed apart in the source
Description: as §1

[7] = membrane-immobilized lipid strips
[8] = intracellular calcium concentration increased (PMA 100 nM, ionomycin 10 μM)
[9] = HepG2, PMA 0, 10, 50 or 100 nM or ionomycin 0, 1, 5, 10 or 20 μM, 100 nM insulin, dose-dependent

C2 domain of PKCβ protein: purified C2 domain of PKCβ protein, SEQ. ID. NO: 14
effect of calcium on binding to PI(3,4,5)P3 ([1]; calcium 0, 0.05 or 0.1 mM): promoted | effect of calcium on binding to PI(4,5)P2 ([1]; calcium 0, 0.05 or 0.1 mM): promoted | binding to PI(3,4,5)P3 [1, 7]: strongly bound | binding to PI(4,5)P2 [1, 7]: strongly bound | binding to PI(3,4,5)P3 by ITC ([2]; absence of calcium): not induced | binding to PI(3,4,5)P3 by ITC ([2]; increased calcium concentration, POPC:PI(3,4,5)P3 80:20 liposome): strongly bound | migration to the cell membrane (CHO cells; insulin 100 nM added): did not migrate to the cell membrane | migration to the cell membrane (CHO cells; [8]): migrated as the intracellular calcium concentration was increased

C[C@H](CCC(=O)O)C[C@H](C)C[C@H](C)C(=O)/C=C(\O)[C@H](C)C[C@H](C)C/C=C/[C@@H](C)[C@@H](O)[C@@H](C)[C@@H](O)C[C@@H]1CC[C@@](C)([C@H]2CC[C@@](C)([C@@H](C)O)O2)O1 [ionomycin]
phosphorylation of Akt protein (Akt protein [3]; [9]): significantly inhibited

CCCCCCCCCCCCCCCC(=O)OCC(COP(=O)(O)OC1C(O)C(O)C(OP(=O)(O)O)C(OP(=O)(O)O)C1O)OC(=O)CCCCCCCCCCCCCCC (stereo not shown) [PI(3,4)P2, 1,2-dipalmotoyl-sn-glycero-3-phosphatidylinositol-3,4-triphosphate]
binding to calcium [4]: high affinity

CCCCCCCCCCCCCC(=O)O[C@@H]1[C@@H](C)[C@@]2(O)[C@@H](C=C(CO)C[C@]3(O)C(=O)C(C)=C[C@@H]23)[C@@H]2C(C)(C)[C@]12OC(C)=O [PMA, phorbol myristate acetate]
phosphorylation of Akt protein (Akt protein [3]; [9]): significantly inhibited

CCCCCCCCCCCCCCCC(=O)OCC(COP(=O)(O)OC1C(O)C(OP(=O)(O)O)C(OP(=O)(O)O)C(OP(=O)(O)O)C1O)OC(=O)CCCCCCCCCCCCCCC (stereo not shown) [PI(3,4,5)P3, 1,2-dipalmotoyl-sn-glycero-3-phosphatidylinositol-3,4,5-trisphosphate]
binding to calcium [4]: high affinity

CCCCCCCCCCCCCCCC(=O)OCC(COP(=O)(O)OC1C(O)C(O)C(OP(=O)(O)O)C(OP(=O)(O)O)C1O)OC(=O)CCCCCCCCCCCCCCC (stereo not shown) [PI(4,5)P2, 1,2-dipalmotoyl-sn-glycero-3-phosphatidylinositol-4,5-trisphosphate]
binding to calcium [4]: high affinity

COc1ccc(CCN(C)CCCC(C#N)(c2ccc(OC)c(OC)c2)C(C)C)cc1OC (stereo not shown) [verapamil]
phosphorylation of Akt protein (Akt protein [3]; HepG2, verapamil 0, 5, 10 or 100 nM, effect of insulin addition): increased

wild type Akt protein: control: wild type Akt protein containing the PH domain, SEQ. ID. NO: 16
Akt protein activation by PI3K (Akt protein [5]): activated | Akt protein activation as calcium concentration increases (Akt protein [5]; PMA 0, 10, 50 or 100 nM, ionomycin 20 μM, 1 hour): inhibited

B1: PH domain of Akt protein: purified PH domain of Akt1 protein, SEQ. ID. NO: 13 (protein)
chain: MSDVAIVKEGWLHKRGEYIKTWRPRYFLLKNDGTFIGYKERPQDVDQREAPLNNFSVAQCQLMKTERPRPNTFIIRCLQWTTVIERTFHVETPEEREEWTTAIQTVADGLKKQEEEEMDFRSGSPSDNSGAEEMEVSLAKPKHR
modifications: artificial_PH domain of Akt protein
effect of calcium on binding to PI(3,4)P2 ([6]; calcium 0, 0.05 or 0.1 mM): inhibited as calcium concentration was increased | binding to PI(3,4)P2 [6, 7]: bound | effect of calcium on binding to PI(3,4,5)P3 ([1]; calcium 0, 0.05 or 0.1 mM): inhibited as calcium concentration was increased | binding to PI(3,4,5)P3 [1, 7]: bound | migration to the cell membrane (CHO cells; insulin 100 nM added): migrated to the cell membrane | migration to the cell membrane (CHO cells; [8]): not observed
